Measured values: ChEMBL document CHEMBL1201862, “PubChem BioAssay data set” (2004)
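Dose response: 5 concentrations. Exposure: 48 h. Format: 96-well plates. Endpoint: linear interpolation; highest concentration if not reached. Abbreviation: GI50, concentration required for 50% inhibition of growth.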 Activity calls are given as the source filed them. Rule as the data show it: active = GI50 up to about 1.1 µM and inactive = higher.

How the values were obtained:
Experiment in all cases: growth of human tumour cells (NCI), 48 h
T47D = tested on: T47D
OVCAR-3 = tested on: OVCAR-3
CAKI-1 = tested on: CAKI-1
HCC 2998 = tested on: HCC 2998
MDA-N = tested on: MDA-N
MCF7 = tested on: MCF7
NCI-H226 = tested on: NCI-H226
PC-3 = tested on: PC-3
SNB-75 = tested on: SNB-75
DMS-273 = tested on: DMS-273
MDA-MB-435 = tested on: MDA-MB-435
HT-29 = tested on: HT-29
BT-549 = tested on: BT-549
IGROV-1 = tested on: IGROV-1
Malme-3M = tested on: Malme-3M
DU-145 = tested on: DU-145
EKVX = tested on: EKVX
Hs-578T = tested on: Hs-578T
NCI/ADR-RES = tested on: NCI/ADR-RES
MDA-MB-231 = tested on: MDA-MB-231

SMILES	GI50 (T47D)	GI50 (OVCAR-3)	GI50 (CAKI-1)	GI50 (HCC 2998)	GI50 (MDA-N)	GI50 (MCF7)	GI50 (NCI-H226)	GI50 (PC-3)	GI50 (SNB-75)	GI50 (DMS-273)	GI50 (MDA-MB-435)	GI50 (HT-29)	GI50 (BT-549)	GI50 (IGROV-1)	GI50 (Malme-3M)	GI50 (DU-145)	GI50 (EKVX)	GI50 (Hs-578T)	GI50 (NCI/ADR-RES)	GI50 (MDA-MB-231)
Cc1c2cc[n+](C)cc2c(C)c2c1[nH]c1ccccc12	0.157 µM (active)	3.06 µM (inactive)	2.69 µM (inactive)	2.28 µM (inactive)	1.92 µM (inactive)	2.44 µM (inactive)	0.312 µM (active)	4.83 µM (inactive)	0.184 µM (active)	1.64 µM (inactive)	9.02 µM (inactive)	5.66 µM (inactive)	2.38 µM (inactive)	3.79 µM (inactive)	0.953 µM (active)	0.52 µM (active)	0.834 µM (active)	–	–	–
O=C(CCCN1CCC(C(O)c2ccc(F)cc2)CC1)c1ccc(F)cc1 (configuration not stated)	56.1 µM (inactive)	57 µM (inactive)	53.7 µM (inactive)	41.1 µM (inactive)	61 µM (inactive)	64.9 µM (inactive)	53.3 µM (inactive)	47.1 µM (inactive)	44.3 µM (inactive)	63.5 µM (inactive)	57 µM (inactive)	42.3 µM (inactive)	45.4 µM (inactive)	61.9 µM (inactive)	55.3 µM (inactive)	61.9 µM (inactive)	62.1 µM (inactive)	46.1 µM (inactive)	66.5 µM (inactive)	39.8 µM (inactive)
Cn1c(=O)c2nc3sc4c(n3c2n(C)c1=O)C(=O)c1ccccc1C4=O	0.893 µM (active)	12.1 µM (inactive)	> 78.9 µM (inactive)	> 80.2 µM (inactive)	> 64.3 µM (inactive)	> 25.9 µM (inactive)	65.8 µM (inactive)	> 42 µM (inactive)	14.7 µM (inactive)	> 100 µM (inactive)	> 28.4 µM (inactive)	42.6 µM (inactive)	> 44.7 µM (inactive)	> 54.3 µM (inactive)	> 90.2 µM (inactive)	> 65 µM (inactive)	> 100 µM (inactive)	23.3 µM (inactive)	19 µM (inactive)	> 42.4 µM (inactive)
